In publication PMC10906241, “Molecular Insights into O-Linked Sialoglycans Recognition by the Siglec-Like SLBR-N (SLBRUB10712) of Streptococcus gordonii” (ACS Central Science, 2024) one finds Kd data, which are given here for one compound.

The target in this experiment is SLBR-N (SLBRUB10712) (Streptococcus mitis, UniProt A0A6I8WFK9). The experiment is described as follows: ITC. The conditions noted are these: single-site binding model.
Chain of SLBR-N (SLBRUB10712) (A0A6I8WFK9 entry or part of it): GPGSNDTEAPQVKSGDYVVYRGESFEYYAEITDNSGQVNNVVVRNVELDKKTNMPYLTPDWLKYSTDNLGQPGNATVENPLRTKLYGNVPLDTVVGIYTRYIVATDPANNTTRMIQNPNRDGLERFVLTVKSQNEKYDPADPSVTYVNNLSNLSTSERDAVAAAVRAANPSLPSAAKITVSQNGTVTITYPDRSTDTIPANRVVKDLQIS

Turning to `CC(=O)N[C@H]1[C@H](OC[C@H]2O[C@H](O[C@H](C)[C@H](N)C(=O)O)[C@H](NC(C)=O)[C@@H](O[C@@H]3O[C@H](CO)[C@H](O)[C@H](O[C@]4(C(=O)O)C[C@H](O)[C@@H](NC(C)=O)[C@H]([C@H](O)[C@H](O)CO)O4)[C@H]3O)[C@H]2O)O[C@H](CO)[C@@H](O[C@@H]2O[C@H](CO)[C@H](O)[C@H](O[C@]3(C(=O)O)C[C@H](O)[C@@H](NC(C)=O)[C@H]([C@H](O)[C@H](O)CO)O3)[C@H]2O)[C@@H]1O` [compound 5, ligand 5], the affinity, expressed as Kd, was 15.1 ± 1.13 µM.
